Among the data in patent US6608027B1, “Macrocyclic peptides active against the hepatitis C virus” (Boehringer Ingelheim (Canada) Ltd, priority 1999, dated 2003) are IC50 and EC50 values, retold here.

Test [1] addresses T1, His-NS3-NS4AFL (full-length NS3-NS4A protein complex) (Hepatitis C virus genotype 1b, UniProt P26663).
T1 construct: made in house; host or cells: Sf21 insect cells, recombinant baculovirus (Bac-to-Bac, pFastBac HTa)
The test is described as follows: Full-length NS3-NS4A heterodimer protein fluorogenic assay. It is filed as biochemical, HCV genotype 1b. The text has this:
The NS2-NS5B-3′non coding region was cloned by RT-PCR into the pCR®3 vector (Invitrogen) using RNA extracted from the serum of an HCV genotype 1b infected individual (provided by Dr. Bernard Willems, Hôpital St-Luc, Montréal, Québec, Canada). The NS3-NS4A region (NS3-NS4AFL) was then subcloned by PCR into the pFastBac™ HTa baculovirus expression vector (Gibco/BRL). The vector sequence includes a region encoding a 28-residue N-terminal sequence which contains a hexahistidine tag. The Bac-to-Bac™ baculovirus expression system (Gibco/BRL) was used to produce the recombinant baculovirus. His-NS3-NS4AFL was expressed by infecting 10^6 Sf21 cells/mL with the recombinant baculovirus at a multiplicity of infection of 0.1-0.2 at 27°. Authentic auto-proteolysis occurs during expression to produce a non covalent and stable NS3-NS4A protein complex (referred to as full-length “FL”). The infected culture was harvested 48 to 64 h later by centrifugation at 4°. The cell pellet was homogenized in 50 mM NaPO4, pH 7.5, 40% glycerol (w/v), 2 mM β-mercaptoethanol, in presence of a cocktail of protease inhibitors. His-NS3-NS4AFL was then extracted from the cell lysate with 1.5% NP-40, 0.5% Triton X-100, 0.5M NaCl, and a DNase treatment. After ultracentrifugation, the soluble extract was diluted 4-fold and bound on a Pharmacia Hi-Trap Ni-chelating column. The His-NS3-NS4AFL was eluted in a >90% pure form (as judged by SDS-PAGE), using a 50 to 400 mM imidazole gradient. The His-NS3-NS4AFL was stored at −80° in 50 mM sodium phosphate, pH 7.5, 10% (w/v) glycerol, 0.5 M NaCl, 0.25 M imidazole, 0.1% NP-40. It was thawed on ice and diluted just prior to use.
The protease activity of His-NS3-NS4AFL was assayed in 50 mM Tris-HCl, pH 8.0, 0.25 M sodium citrate, 0.01% (w/v) n-dodecyl-β-D-maltoside, 1 mM TCEP. Five (5) μM of the internally quenched substrate anthranilyl-DDIVPAbu[C(O)—O]-AMY(3-NO2)TW-OH (SEQ. ID NO.: 1) in presence of various concentrations of inhibitor were incubated with 1.5 nM of His-NS3-NS4AFL for 45 min at 23°. […] The reaction was terminated with the addition of 1M MES, pH 5.8. Fluorescence of the N-terminal product was monitored on a Perkin-Elmer LS-50B fluorometer equipped with a 96-well plate reader (excitation wavelength: 325 nm, emission wavelength: 423 nm).
The % inhibition was calculated with the following equation:
100−[(fluoinh−fluoblank)/(fluoctl−fluoblank)×100]
A non-linear curve fit with the Hill model was applied to the inhibition-concentration data, and the 50% effective concentration (IC50) was calculated by the use of SAS software (Statistical Software System; SAS Institute, Inc. Cary, N.C.).

For the next test, the target named is T2, NS3 protease (Hepatitis C virus genotype 1b, UniProt P26663).
T2 construct: expressed in transfected cells; host or cells: Huh-7 human hepatoma cells, transient co-transfection (CMV promoter)
The test is described as follows: NS3 protease cell-based assay (SEAP reporter, Huh-7 cells). Also noted: species or system HCV. The following applies: SEAP activity, 24-hour incubation, read-out: cell. act. (EC50 code). The text has this:
This assay is done with Huh-7 cells, a human cell line derived from a hepatoma, co-transfected with 2 DNA constructs: one (called NS3) expressing part of the HCV non-structural polyprotein fused to the tTA protein through an NS5A-NS5B cleavage site in the following order: NS3-NS4A-NS4B-NS5A-(NS5B)tTA where (NS5B) represents the 6 first amino acids of NS5
B. This polyprotein is expressed under the control of the CMV promoter, the other (called SEAP) expressing the reporter protein, secreted alkaline phosphatase (SEAP), under the regulation of a tTA-responsive promoter. The first construct leads to the expression of a polyprotein from which the different mature proteins are released through cleavage by the NS3 protease. It is believed that the mature viral proteins forms a complex at the membrane of the endoplasmic reticulum. tTA is a fusion protein, described by Gossen and Bujard (Proc. Natl. Acad. Sci. USA 89 (1992): 5547-5551), which contains a DNA-binding domain and a transcriptional activator. Release of the tTA protein requires an NS3-dependent cleavage at the NS5A-NS5B cleavage site between NS5A and itself. This last cleavage allows tTA to migrate to the nucleus and transactivate the SEAP gene. Therefore, reduction of NS3 proteolytic activity leads to confinement of tTA to the cytoplasm and concomitant decrease in SEAP activity.
To control for cellular activities other than inhibition of NS3 protease which are due to the compound, a parallel co-transfection is done with a construct expressing tTA alone and the same reporter construct such that SEAP activity is independent of the NS3 protease.
Protocol of the assay: Huh-7 cells, grown in CHO-SFMII (Life Technologies)+10% FCS (fetal calf serum) were co-transfected with the two DNA constructs in the following proportions: 7 μg NS3+500 ng SEAP+[…] FuGENE (Boehringer Mannheim) per 4×10^6 Huh-7 cells. After 5 hours at 37° C., the cells were washed, trypsinized and plated (at 80 000 cells/well) in 96-well plates containing a range of concentrations of the compounds to be tested. After a 24-hour incubation period, the SEAP activity in the medium was measured with the Phospha-Light kit (Tropix).
Analysis of the percent inhibition of SEAP activity with respect to compound concentration was performed with the SAS software to obtain the EC50.

The mark [2] stands for this setting: fluorogenic assay of Example 48, no asterisk, read-out: enzyme activity (IC50 grade).

SMILES strings stand for the structures. Where two headings read alike, the source gives them in different places.

T2 sequence (P26663 1658-1711): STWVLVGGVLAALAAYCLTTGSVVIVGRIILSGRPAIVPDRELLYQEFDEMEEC
T2 sequence (P26663 1027-1657): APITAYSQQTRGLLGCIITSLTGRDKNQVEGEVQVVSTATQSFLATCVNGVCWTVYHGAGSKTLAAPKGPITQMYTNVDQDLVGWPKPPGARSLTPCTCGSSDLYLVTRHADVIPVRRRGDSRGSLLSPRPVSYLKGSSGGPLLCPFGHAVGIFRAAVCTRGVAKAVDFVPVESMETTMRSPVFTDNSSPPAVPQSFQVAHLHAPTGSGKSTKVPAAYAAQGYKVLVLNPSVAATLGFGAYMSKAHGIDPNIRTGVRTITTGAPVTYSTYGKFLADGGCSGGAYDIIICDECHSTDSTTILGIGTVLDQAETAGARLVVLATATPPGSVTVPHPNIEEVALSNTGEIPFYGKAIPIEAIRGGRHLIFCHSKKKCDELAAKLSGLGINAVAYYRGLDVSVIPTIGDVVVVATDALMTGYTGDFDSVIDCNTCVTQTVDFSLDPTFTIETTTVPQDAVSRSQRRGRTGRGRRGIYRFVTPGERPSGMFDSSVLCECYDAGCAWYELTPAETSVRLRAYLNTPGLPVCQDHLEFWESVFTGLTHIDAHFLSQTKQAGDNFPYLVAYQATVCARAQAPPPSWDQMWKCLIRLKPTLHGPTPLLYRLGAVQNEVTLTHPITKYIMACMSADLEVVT
T1 sequence (P26663 1658-1711): as the sequence (P26663 1658-1711) above
T1 sequence (P26663 1027-1657): as the sequence (P26663 1027-1657) above

Turning to `COc1ccc2c(O[C@@H]3C[C@H]4C(=O)N[C@]5(C(=O)O)CC5/C=C\CCCCC[C@H](NC(=O)NC(C)(C)C)C(=O)N4C3)cc(-c3ccccc3)nc2c1` (stereo partly shown) [Compound 209], in test [1], the IC50 is under 0.1 µM.
For `COc1ccc2c(O[C@@H]3C[C@H]4C(=O)N[C@]5(C(=O)O)C[C@H]5C=CCCCC=CC[C@H](NC(=O)OC(C)(C)C)C(=O)N4C3)cc(-c3ccccc3)nc2c1` [Compound 304], the IC50 in test [1] (setting [2]) was under 0.1 µM.
Take `COc1ccc2c(O[C@@H]3C[C@H]4C(=O)N[C@]5(C(=O)O)C[C@H]5/C=C\CCCCC[C@H](NC(=O)OC(C)(C)C)C(=O)N4C3)ccnc2c1` [Compound 207]: the IC50 in test [1] was under 0.1 µM.
With `COc1ccc2c(OC3CC4C(=O)NC5(C(=O)O)CC5CCC=CCCCC(NC(=O)OC(C)(C)C)C(=O)N4C3)cc(-c3ccccc3)nc2c1` (stereo not shown) [Compound 402], the IC50 in test [1] (setting [2]) was 0.1 to 1 µM.
For `COc1ccc2c(O[C@@H]3C[C@H]4C(=O)N[C@]5(C(=O)O)C[C@H]5/C=C\COCCC[C@H](O)C(=O)N4C3)cc(-c3ccccc3)nc2c1` [Compound 305], in test [1] (setting [2]), the IC50 fell in the range of 0.1 to 1 µM.
In test [1], `COc1ccc2c(O[C@@H]3C[C@H]4C(=O)N[C@]5(C(=O)O)C[C@H]5CCCCCCC[C@H](NC(=O)OC(C)(C)C)C(=O)N4C3)cc(-c3ccccc3)nc2c1` [Compound 215] showed an IC50 of under 0.1 µM.
`CC(C)(C)OC(=O)N[C@H]1CCCC(O)C(O)CC[C@@H]2C[C@@]2(C(=O)O)NC(=O)[C@@H]2CC(Oc3ccnc4ccccc34)CN2C1=O` (stereo partly shown) [Compound 205] displayed an IC50 in test [1] of 0.1 to 1 µM.
On to `COc1ccc2c(O[C@@H]3C[C@H]4C(=O)N[C@]5(C(=O)O)CC5CCCCCO[C@H](C)[C@H](NC(=O)OC(C)(C)C)C(=O)N4C3)cc(-c3ccccc3)nc2c1` (stereo partly shown) [Compound 407], for which, in test [1] (setting [2]), the concentration for half-maximal inhibition (IC50) lay in the range of 0.1 to 1 µM.
Take `COc1ccc2c(O[C@@H]3C[C@H]4C(=O)N[C@]5(C(=O)O)C[C@H]5/C=C\CCCCCC(O)C(=O)N4C3)ccnc2c1` (single isomer, unassigned) [Compound 213]: in test [1], the IC50 lay in the range of 0.1 to 1 µM.
In the case of `COc1ccc2c(O[C@@H]3C[C@H]4C(=O)N[C@]5(C(=O)O)C[C@H]5CC/C=C/CCC[C@H](NC(=O)OC(C)(C)C)C(=O)N4C3)cc(-c3ccccc3)nc2c1` [Compound 401], the half-inhibitory concentration (IC50) in test [1] (setting [2]) is under 0.1 µM.
For the compound `COc1ccc2c(OC3CC4C(=O)NC5(C(=O)O)CC5CCC=CCOCC(NC(=O)OC(C)(C)C)C(=O)N4C3)cc(-c3ccccc3)nc2c1` (stereo not shown) [Compound 403], the IC50 in test [1] (setting [2]) is under 0.1 µM.
For `CC(=O)Nc1nc(-c2cc(O[C@@H]3C[C@H]4C(=O)N[C@]5(C(=O)O)C[C@H]5/C=C\CCCCC[C@H](NC(=O)OC(C)(C)C)C(=O)N4C3)c3ccc(N(C)C)cc3n2)cs1` [Compound 601], the IC50 in test [1] (setting [2]) is under 0.1 µM.
`COc1ccc2c(O[C@@H]3C[C@H]4C(=O)N[C@]5(C(=O)O)C[C@H]5CC/C=C/CS[C@@H](C)[C@H](NC(=O)OC(C)(C)C)C(=O)N4C3)cc(-c3ccccc3)nc2c1` [Compound 410]: the IC50 in test [1] (setting [2]) is under 0.1 µM.
In the case of `COc1ccc2c(O[C@@H]3C[C@H]4C(=O)N[C@]5(C(=O)O)C[C@H]5/C=C\CCCCC[C@H](NC(=O)OC(C)(C)C)C(=O)N4C3)cc(-c3cnco3)nc2c1` [Compound 603], the IC50 in test [1] (setting [2]) is under 0.1 µM.
Take `CCOc1cc(O[C@@H]2C[C@H]3C(=O)N[C@]4(C(=O)O)C[C@H]4/C=C\CCCCC[C@H](NC(C)=O)C(=O)N3C2)c2ccc(OC)cc2n1` [Compound 308]: in test [1] (setting [2]), the 50% inhibitory concentration (IC50) is under 0.1 µM.
Same read-out and setting: as for `COc1ccc2c(OC3CC4C(=O)NC5(C(=O)O)CC5CCC=CCSC(C)(C)C(NC(=O)OC(C)(C)C)C(=O)N4C3)cc(-c3ccccc3)nc2c1` (stereo not shown) [Compound 412], the figure is over 1 µM.
For `CC(=O)N[C@H]1CCC/C=C/CC[C@@H]2C[C@@]2(C(=O)O)NC(=O)[C@@H]2CC(Oc3ccnc4ccccc34)CN2C1=O` (stereo partly shown) [Compound 203], the half-maximal inhibitory concentration (IC50) in test [1] is over 1 µM.
In the case of `COc1ccc2c(O[C@@H]3C[C@H]4C(=O)N[C@]5(C(=O)O)CC5CCCCN(C(C)=O)CC[C@H](NC(=O)OC(C)(C)C)C(=O)N4C3)cc(-c3ccccc3)nc2c1` (stereo partly shown) [Compound 508], the IC50 in test [1] (setting [2]) was under 0.1 µM.
In turn, `COc1ccc2c(O[C@@H]3C[C@H]4C(=O)N[C@]5(C(=O)O)C[C@H]5/C=C\CCCCC[C@H](NC(=O)OC(C)(C)C)C(=O)N4C3)cc(-c3ccccc3)nc2c1` [Compound 208] gave an IC50 in test [1] of under 0.1 µM.
In turn, `COc1ccc2c(O[C@@H]3C[C@H]4C(=O)N[C@]5(C(=O)O)C[C@H]5/C=C\CCC(O)CC[C@H](NC(=O)OC(C)(C)C)C(=O)N4C3)cc(-c3ccccc3)nc2c1` (mixture of isomers) [Compound 217] came in with an IC50 in test [1] of under 0.1 µM.
With `COc1ccc2c(O[C@@H]3C[C@H]4C(=O)N[C@]5(C(=O)O)C[C@@H]5/C=C/COCCC[C@H](NC(=O)OC(C)(C)C)C(=O)N4C3)cc(-c3ccccc3)nc2c1` [Compound 303], the IC50 in test [1] (setting [2]) lay in the range of 0.1 to 1 µM.
In turn, `CC(C)(C)OC(=O)N[C@H]1CCC/C=C/CC[C@@H]2C[C@@]2(C(=O)O)NC(=O)[C@@H]2CC(Oc3ccnc4ccccc34)CN2C1=O` (stereo partly shown) [Compound 202] yielded an IC50 in test [1] of 0.1 to 1 µM.
`COc1ccc2c(O[C@@H]3C[C@H]4C(=O)N[C@]5(C(=O)O)C[C@H]5/C=C\CCCCC[C@H](NC(=O)OC(C)(C)C)C(=O)N4C3)cc(-c3csc(C(C)C)n3)nc2c1` [Compound 707]: on NS3 protease, the EC50 was at most 1 µM.
Take `COC(=O)Nc1nc(-c2cc(O[C@@H]3C[C@H]4C(=O)N[C@]5(C(=O)O)C[C@H]5/C=C\CCCCC[C@H](NC(=O)OC(C)(C)C)C(=O)N4C3)c3ccc(OC)cc3n2)cs1` [Compound 736]: the EC50 at NS3 protease was at most 1 µM.
On the same count and under the same terms, as for `COc1ccc2c(O[C@@H]3C[C@H]4C(=O)N[C@]5(C(=O)O)C[C@H]5/C=C\CCCCC[C@H](NC(=O)OC(C)(C)C)C(=O)N4C3)cc(-n3cccc3)nc2c1` [Compound 715], the figure is at most 1 µM; as for `COc1ccc2c(O[C@@H]3C[C@H]4C(=O)N[C@]5(C(=O)O)CC5CCCCCCC[C@H](NC(=O)OC5CCCC5)C(=O)N4C3)cc(-c3csc(NC(C)=O)n3)nc2c1` (stereo partly shown) [Compound 909], at most 1 µM; as for `COc1ccc2c(O[C@@H]3C[C@H]4C(=O)N[C@]5(C(=O)O)CC5/C=C\CCCCC[C@H](NC(=O)OC(C)(C)C)C(=O)N4C3)cc(-n3cccn3)nc2c1` (stereo partly shown) [Compound 733], at most 1 µM.
Regarding `CCNc1nc(-c2cc(O[C@@H]3C[C@H]4C(=O)N[C@]5(C(=O)O)CC5/C=C\CCCCC[C@H](NC(=O)OC5CCCC5)C(=O)N4C3)c3ccc(OC)cc3n2)cs1` (stereo partly shown) [Compound 810], the EC50 at NS3 protease is at most 1 µM.

One may read the IC50 as the point on the concentration scale where inhibition reaches its midpoint. One may read the EC50 as the concentration needed to bring the measured effect to its halfway point.
